According to US8344028B2, “Gamma-amino-butyric acid derivatives as GABAB receptor ligands” (XenoPort, Inc., priority 2009, dated 2013):

molecular target: GABAB receptor (Homo sapiens, UniProt Q9UBS5); test: GABAB receptor agonist or partial agonist activity by binding, electrophysiology, cAMP and/or Ca2+ assay methods (Examples 83-86); assay type: cell-based
Protocol: An assay using rat cerebral cortex membranes was used to determine the affinity of GABAB receptor ligands for the GABAB receptor.
An assay buffer of 50 mM Tris pH 7.4 was prepared with 100 μM of isoguvacine, to block GABAA interactions. The assay buffer with isoguvacine was used for dilution of membranes, compounds, and radiolabel.
Rat cerebral cortex membranes were diluted in assay buffer at 1 mg/mL and aliquoted into a 96-well plate at 900 μL/well. Buffer or test compound were added at 20-times final concentration in the buffer at 50 μL/well. Membranes and test compounds or buffer were incubated for 10 min. at room temperature. Radiolableled [S—(R*,R*)]-[3-[[1-(3,4-dichlorophenyl)ethyl]amino]-2-hydroxypropyl](cyclohexylmethyl) phosphinic acid (CGP54626) was then added at 50 μL/well in the buffer at 1-10 nM concentration in 50 μl. […] The assay mixture was filtered using Brandell filtration apparatus and GFB filters, washed twice with 3 mL of 4° C., 50 mM Tris pH 7.4, buffer without isoguvacine. The filters were then dried at room temperature and the dried filters punched out and placed in individual vials. Three (3) mL of scintillation fluid was added to each vial and the radiolabel counted on the scintillation counter. The inverse amount of radiolabel was indicative of binding of a test compound to the GABAB receptor.
The following procedure was used to determine the level of intracellular cAMP. Recombinant HEK cells expressing the GABAB R1a2 receptor were used in the experiments. cAMP levels were measured using a cAMP XS^+ HitHunter™ Chemiluminescence Assay Kit (90-0075-02, GE Healthcare Biosciences Corp.). Cells were seeded overnight at 5,000 cells per well, in black, clear bottom 96-well plates. The following morning, cells were washed twice with 100 μL PBS per well. Forskolin was weighed out and dissolved in DMSO to a final concentration 100 mM. One-hundred (100) μM forskolin solutions were prepared in PBS with and without test compound at 1-times final concentration. Thirty (30) μL of the test solutions were added to the wells and incubated for 1 h at room temperature. The cAMP concentration was determined according to the protocol described in the cAMP assay kit, maintaining the plate at room temperature and in the dark. […] Each well was read for 6 seconds. The untransformed data was then analyzed.
The following procedure was used to determine the GABAB receptor agonist activity of a compound as reflected by activation of Ca^2+ signaling. HEK TREx cells expressing GABABR1a2 under tetracycline induction control, and Gqi chimeric protein (expressed constitutively), allowing GABABR coupling through the Ca^2+ signaling pathway were used in the experiments.
Cells were seeded in media containing tetracycline overnight at 100,000 cells/well, in black, clear-bottom, 96-well plates. The following morning, cells were washed twice with 100 μL HBSS buffer per well. Fluorescent Ca^2+ indicator dye was prepared using the materials and procedure described in the F362056 Fluo-4 NW Calcium Assay Kit (Invitrogen, Carlsbad, Calif.). Ten (10) mL of kit buffer and 100 μl of kit Probenecid were added to individual kit dye vials, and rolled back and forth several times to dissolve the dye. Cells were then loaded into the dye solution at 50 μL per well. The cells and dye were incubated for 30 min at 37° C., and then incubated for an additional 30 min at room temperature in the dark. Test compounds are dissolved in HBSS buffer at twice final concentration. Duplicate wells were used for each unique condition. Solution containing the test compound was added to the wells using a FLEXStation II (Molecular Devices, Sunnyvale, Calif.). Using the instrument in kinetic mode in which each well was read every 2 sec over a total collection time of 50 sec fluorescence was measured using an excitation wavelength 494 nm and a detection wavelength of 516 nm. A normalized fluorescence value for each well was calculated using the following procedure.

Chain of GABAB receptor (Q9UBS5 20-961): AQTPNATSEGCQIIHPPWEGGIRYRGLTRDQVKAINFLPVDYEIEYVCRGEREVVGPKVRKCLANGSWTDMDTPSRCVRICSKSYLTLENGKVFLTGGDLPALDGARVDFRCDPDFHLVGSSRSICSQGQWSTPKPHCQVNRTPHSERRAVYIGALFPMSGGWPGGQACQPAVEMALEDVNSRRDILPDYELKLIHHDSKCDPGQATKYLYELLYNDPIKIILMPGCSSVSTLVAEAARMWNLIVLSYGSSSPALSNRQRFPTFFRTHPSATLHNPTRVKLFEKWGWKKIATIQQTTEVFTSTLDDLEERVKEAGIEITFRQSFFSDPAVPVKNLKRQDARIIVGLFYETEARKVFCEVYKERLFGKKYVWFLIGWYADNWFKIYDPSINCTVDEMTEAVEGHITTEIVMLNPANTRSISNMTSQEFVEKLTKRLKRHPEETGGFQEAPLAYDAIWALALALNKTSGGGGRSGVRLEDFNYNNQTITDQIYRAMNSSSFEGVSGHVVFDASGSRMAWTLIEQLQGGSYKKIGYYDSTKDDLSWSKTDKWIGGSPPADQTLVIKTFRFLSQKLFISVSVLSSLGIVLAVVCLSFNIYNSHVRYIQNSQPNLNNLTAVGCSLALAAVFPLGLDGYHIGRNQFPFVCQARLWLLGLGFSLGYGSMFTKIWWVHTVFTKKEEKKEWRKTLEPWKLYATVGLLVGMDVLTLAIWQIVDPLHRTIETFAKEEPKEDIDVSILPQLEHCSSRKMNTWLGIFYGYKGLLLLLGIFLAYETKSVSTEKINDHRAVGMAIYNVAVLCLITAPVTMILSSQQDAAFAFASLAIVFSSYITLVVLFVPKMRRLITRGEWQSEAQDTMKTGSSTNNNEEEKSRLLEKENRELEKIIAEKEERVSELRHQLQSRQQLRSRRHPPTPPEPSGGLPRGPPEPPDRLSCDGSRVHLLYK
Chain of GABAB receptor (O75899 42-941 partner): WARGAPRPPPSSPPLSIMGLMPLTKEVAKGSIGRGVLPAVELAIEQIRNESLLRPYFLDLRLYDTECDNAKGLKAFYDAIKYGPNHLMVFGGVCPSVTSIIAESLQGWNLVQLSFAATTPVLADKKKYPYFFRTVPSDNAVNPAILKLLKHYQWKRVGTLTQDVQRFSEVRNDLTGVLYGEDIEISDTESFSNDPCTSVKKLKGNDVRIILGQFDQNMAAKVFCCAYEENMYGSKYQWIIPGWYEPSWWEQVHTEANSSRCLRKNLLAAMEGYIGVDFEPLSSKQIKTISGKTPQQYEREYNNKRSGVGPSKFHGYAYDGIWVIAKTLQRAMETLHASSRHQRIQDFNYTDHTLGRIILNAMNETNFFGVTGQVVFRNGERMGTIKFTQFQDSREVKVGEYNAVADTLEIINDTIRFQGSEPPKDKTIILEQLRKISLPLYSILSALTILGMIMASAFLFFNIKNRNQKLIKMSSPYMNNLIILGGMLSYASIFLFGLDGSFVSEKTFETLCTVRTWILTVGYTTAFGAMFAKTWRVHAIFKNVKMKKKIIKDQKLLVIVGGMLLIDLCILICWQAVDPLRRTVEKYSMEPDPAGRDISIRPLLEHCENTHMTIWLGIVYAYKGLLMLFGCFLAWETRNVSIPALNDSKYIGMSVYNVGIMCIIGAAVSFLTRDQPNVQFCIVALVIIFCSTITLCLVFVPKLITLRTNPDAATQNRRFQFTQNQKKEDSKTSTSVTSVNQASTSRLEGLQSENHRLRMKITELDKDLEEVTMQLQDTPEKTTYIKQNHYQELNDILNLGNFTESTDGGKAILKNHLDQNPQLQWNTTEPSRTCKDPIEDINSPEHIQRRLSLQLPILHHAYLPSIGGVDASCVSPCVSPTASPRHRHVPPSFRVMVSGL

Row | GABAB receptor agonist or partial agonist activity | Structure (SMILES)
1 | agonist or partial agonist activity | Cl.NC[C@H](CC(=O)O)c1ccc(Cl)c(-c2ccccc2C(=O)O)c1 [2-{5-[(1R)-2-amino-1-(carboxymethyl)ethyl]-2-chlorophenyl}benzoic acid hydrochloride]
2 | agonist or partial agonist activity | Cl.NC[C@H](CC(=O)O)c1ccc(Cl)c(/C=C/c2cccc(C(=O)O)c2)c1 [3-((1E)-2-{5-[(1R)-2-amino-1-(carboxymethyl)ethyl]-2-chlorophenyl}vinyl)benzoic acid hydrochloride]
3 | agonist or partial agonist activity | Cl.NC[C@H](CC(=O)O)c1ccc(Cl)c(OCc2cccc(C(=O)O)c2)c1 [3-({5-[(1R)-2-amino-1-(carboxymethyl)ethyl]-2-chlorophenoxy}methyl)benzoic acid hydrochloride]
4 | agonist or partial agonist activity | Cl.NC[C@H](CC(=O)O)c1ccc(Cl)c(NCc2cccc(C(=O)O)c2)c1 [3-[({5-[(1R)-2-amino-1-(carboxymethyl)ethyl]-2-chlorophenyl}amino)methyl]benzoic acid hydrochloride]
5 | agonist or partial agonist activity | Cl.N#Cc1ccc(C(=O)O)cc1-c1cc([C@H](CN)CC(=O)O)ccc1Cl [3-{5-[(1R)-2-amino-1-(carboxymethyl)ethyl]-2-chlorophenyl}-4-cyanobenzoic acid hydrochloride]
6 | agonist or partial agonist activity | Cc1ccc(C(=O)O)cc1-c1cc([C@H](CN)CC(=O)O)ccc1Cl.Cl [3-{5-[(1R)-2-amino-1-(carboxymethyl)ethyl]-2-chlorophenyl}-4-methylbenzoic acid hydrochloride]
7 | agonist or partial agonist activity | Cl.NC[C@H](CC(=O)O)c1ccc(Cl)c(-c2cnccc2C(=O)O)c1 [3-{5-[(1R)-2-amino-1-(carboxymethyl)ethyl]-2-chlorophenyl}pyridine-4-carboxylic acid hydrochloride]
8 | agonist or partial agonist activity | Cl.NC[C@@H](CC(=O)O)c1ccc(Cl)c(-c2cccc(C(=O)O)c2)c1 [3-{5-[(1S)-2-amino-1-(carboxymethyl)ethyl]-2-chlorophenyl}benzoic acid hydrochloride]
9 | agonist or partial agonist activity | Cl.NC[C@H](CC(=O)O)c1ccc(Cl)c(Cc2ccc(C(=O)O)cc2)c1 [4-({5-[(1R)-2-amino-1-(carboxymethyl)ethyl]-2-chlorophenyl}methyl)benzoic acid hydrochloride]
10 | agonist or partial agonist activity | COc1cncc(-c2cc(C(CN)CC(=O)O)ccc2Cl)c1.Cl (stereo not drawn) [4-amino-3-[4-chloro-3-(5-methoxy(3-pyridyl))phenyl]butanoic acid hydrochloride]
11 | agonist or partial agonist activity | Cl.NC[C@H](CC(=O)O)c1ccc(Cl)c(-c2ccc(C(=O)O)nc2)c1 [5-{5-[(1R)-2-amino-1-(carboxymethyl)ethyl]-2-chlorophenyl}pyridine-2-carboxylic acid hydrochloride]
12 | agonist or partial agonist activity | Cl.NC[C@H](CC(=O)O)c1ccc(Cl)c(-c2cccc(C(=O)O)n2)c1 [6-{5-[(1R)-2-amino-1-(carboxymethyl)ethyl]-2-chlorophenyl}pyridine-2-carboxylic acid hydrochloride]
13 | agonist or partial agonist activity | Cl.NC[C@H](CC(=O)O)c1ccc(Cl)c(-c2cncc3ccccc23)c1 [(3R)-4-amino-3-(4-chloro-3-(4-isoquinolyl)phenyl)butanoic acid hydrochloride]
14 | agonist or partial agonist activity | Cl.NC[C@H](CC(=O)O)c1ccc(Cl)c(-c2ccncc2)c1 [(3R)-4-amino-3-(4-chloro-3-(4-pyridyl)phenyl)butanoic acid hydrochloride]
15 | agonist or partial agonist activity | Cl.NC[C@H](CC(=O)O)c1ccc(Cl)c(Oc2ccncc2)c1 [(3R)-4-amino-3-(4-chloro-3-(4-pyridyloxy)phenyl)butanoic acid hydrochloride]
16 | agonist or partial agonist activity | Cl.NC[C@H](CC(=O)O)c1ccc(Cl)c(NCc2ccncc2Cl)c1 [(3R)-4-amino-3-(4-chloro-3-{[(3-chloro(4-pyridyl))methyl]amino}phenyl)butanoic acid hydrochloride]

Continued, compound first:

Row | Structure (SMILES) | GABAB receptor agonist or partial agonist activity
17 | Cl.NC[C@H](CC(=O)O)c1ccc(Cl)cc1/C=C/c1ccccc1 [3-[2-((1E)-2-phenylvinyl)-4-chlorophenyl](3R)-4-aminobutanoic acid hydrochloride] | agonist or partial agonist activity
18 | Cl.NC[C@H](CC(=O)O)c1ccc(Cl)c(/C=C/c2ccccn2)c1 [3-[3-((1E)-2-(2-pyridyl)vinyl)-4-chlorophenyl](3R)-4-aminobutanoic acid hydrochloride] | agonist or partial agonist activity
19 | Cl.NC[C@H](CC(=O)O)c1ccc(Cl)cc1-c1cccc(C(=O)O)c1 [3-{2-[(1R)-2-amino-1-(carboxymethyl)ethyl]-5-chlorophenyl}benzoic acid hydrochloride] | agonist or partial agonist activity
20 | NC[C@H](CC(=O)O)c1cc(Br)c(Cl)c(-c2cc(Cl)cc(C(=O)O)c2)c1 [3-{5-[(1R)-2-amino-1-(carboxymethyl)ethyl]-3-bromo-2-chlorophenyl}-5-chlorobenzoic acid] | agonist or partial agonist activity
21 | Cl.NC[C@H](CC(=O)O)c1cc(Br)c(Cl)c(-c2cccc(C(=O)O)c2)c1 [3-{5-[(1R)-2-amino-1-(carboxymethyl)ethyl]-3-bromo-2-chlorophenyl}benzoic acid hydrochloride] | agonist or partial agonist activity
22 | NC[C@H](CC(=O)O)c1ccc(Cl)c(CCCC(=O)O)c1 [4-{5-[(1R)-2-amino-1-(carboxymethyl)ethyl]-2-chlorophenyl}butanoic acid] | agonist or partial agonist activity
23 | Cl.N#Cc1ccccc1CNc1cc([C@H](CN)CC(=O)O)ccc1Cl [(3R)-4-amino-3-(4-chloro-3-{[(2-cyanophenyl)methyl]amino}phenyl)butanoic acid hydrochloride] | agonist or partial agonist activity
24 | Cl.NC[C@H](CC(=O)O)c1ccc(Cl)c(NCc2cccc(F)c2)c1 [(3R)-4-amino-3-(4-chloro-3-{[(3-fluorophenyl)methyl]amino}phenyl)butanoic acid hydrochloride] | agonist or partial agonist activity
25 | Cl.NC[C@H](CC(=O)O)c1ccc(Cl)c(NCc2ccc(F)cc2)c1 [(3R)-4-amino-3-(4-chloro-3-{[(4-fluorophenyl)methyl]amino}phenyl)butanoic acid hydrochloride] | agonist or partial agonist activity
26 | Cc1ccc(CNc2cc([C@H](CN)CC(=O)O)ccc2Cl)cc1.Cl [(3R)-4-amino-3-(4-chloro-3-{[(4-methylphenyl)methyl]amino}phenyl)butanoic acid hydrochloride] | agonist or partial agonist activity
27 | Cl.NC[C@H](CC(=O)O)c1ccc(Cl)c(NCc2ccc([N+](=O)[O-])cc2)c1 [(3R)-4-amino-3-(4-chloro-3-{[(4-nitrophenyl)methyl]amino}phenyl)butanoic acid hydrochloride] | agonist or partial agonist activity
